{"source": "patent US20060089335A1", "about": "“Compositions and methods for enhancing cognitive function and synaptic plasticity” (priority 2003, published 2006)", "key": {"[1]": {"target": "NMDA receptors (NR2B-containing) (Rattus norvegicus, UniProt P35439+Q00960)", "sequence (Q00960 27-1482, other chains not shown)": "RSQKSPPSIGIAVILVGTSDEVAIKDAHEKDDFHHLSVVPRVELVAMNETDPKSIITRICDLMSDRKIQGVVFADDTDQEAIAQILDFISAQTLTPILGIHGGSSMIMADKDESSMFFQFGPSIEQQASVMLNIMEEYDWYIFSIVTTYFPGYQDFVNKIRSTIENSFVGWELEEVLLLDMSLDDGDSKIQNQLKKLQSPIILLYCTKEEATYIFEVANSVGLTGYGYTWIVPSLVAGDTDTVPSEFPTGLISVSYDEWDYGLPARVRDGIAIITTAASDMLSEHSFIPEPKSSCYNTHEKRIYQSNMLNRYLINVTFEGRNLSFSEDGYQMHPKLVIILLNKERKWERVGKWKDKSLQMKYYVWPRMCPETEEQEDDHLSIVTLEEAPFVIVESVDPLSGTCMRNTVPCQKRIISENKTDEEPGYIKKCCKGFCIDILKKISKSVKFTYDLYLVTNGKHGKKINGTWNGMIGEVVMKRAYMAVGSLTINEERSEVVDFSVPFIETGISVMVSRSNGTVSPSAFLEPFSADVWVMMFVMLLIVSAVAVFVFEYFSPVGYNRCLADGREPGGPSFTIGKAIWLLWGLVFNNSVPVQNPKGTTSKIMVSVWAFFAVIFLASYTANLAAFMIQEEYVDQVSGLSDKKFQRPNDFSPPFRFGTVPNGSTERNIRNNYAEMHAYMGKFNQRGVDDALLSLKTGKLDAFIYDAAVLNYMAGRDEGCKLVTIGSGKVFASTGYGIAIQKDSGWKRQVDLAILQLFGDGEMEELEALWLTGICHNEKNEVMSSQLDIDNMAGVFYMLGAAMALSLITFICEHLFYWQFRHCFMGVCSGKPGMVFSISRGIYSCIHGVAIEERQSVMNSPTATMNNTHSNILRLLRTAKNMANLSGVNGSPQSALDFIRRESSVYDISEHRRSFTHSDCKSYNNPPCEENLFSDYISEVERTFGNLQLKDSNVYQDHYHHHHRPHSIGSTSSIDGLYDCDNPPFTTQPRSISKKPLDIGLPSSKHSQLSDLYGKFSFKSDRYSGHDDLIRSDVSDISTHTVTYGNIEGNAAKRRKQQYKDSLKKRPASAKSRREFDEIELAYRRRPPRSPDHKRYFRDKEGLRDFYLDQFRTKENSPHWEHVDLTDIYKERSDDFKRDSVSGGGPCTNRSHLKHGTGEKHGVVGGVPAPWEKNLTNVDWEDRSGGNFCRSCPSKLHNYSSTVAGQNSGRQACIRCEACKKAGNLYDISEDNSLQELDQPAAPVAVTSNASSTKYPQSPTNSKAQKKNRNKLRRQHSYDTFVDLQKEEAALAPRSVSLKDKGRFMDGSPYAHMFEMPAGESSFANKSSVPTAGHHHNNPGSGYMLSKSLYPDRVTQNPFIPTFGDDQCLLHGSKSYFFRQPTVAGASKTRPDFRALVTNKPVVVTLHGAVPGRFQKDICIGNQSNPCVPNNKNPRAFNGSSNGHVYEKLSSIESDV", "assay": "evoked NMDA currents ([…]), double-perforated patch", "type": "cell-based", "protocol": "(§1) Electrophysiology. Dual whole cell perforated patch clamp recordings were made on two interconnected cultured hippocampal pyramidal neurons. Perforated patch pipettes were front-filled with a solution containing (in mM): CsOH, 127; D-gluconic acid, 127; CsCl, 4; HEPES, 10; NaCl, 8; EGTA, 0.4; pH was adjusted to 7.25 with CsOH, and then back-filled with the same solution containing […] amphotericin B (Sigma, St. Louis, Mo.). Extracellular solution contained (in mM): NaCl, 145; KCl, 3; glucose, 15; HEPES, 10; MgCl2, 0.8-1.2; CaCl2, 1.2; 0.005 glycine (Sigma), 0.05 picrotoxin (Sigma); pH adjusted to 7.4 with NaOH. MgCl2 concentration was matched to its concentration in culture medium. In experiments where effects of drugs on neuronal activity were quantified (FIG. 4D), recordings were done in culture medium (with HEPES replacing bicarbonate/CO2 to maintain pH). All experiments were performed at room temperature. For assaying synaptic connectivity, each neuron was stimulated by 1 ms step depolarization from −70 to +30 mV in voltage-clamp mode. Only neurons with monosynaptic connections were used. […] Recordings with access resistance>20 MΩ or that varied substantially were rejected from analysis.\nWe hypothesized that one target may be the number and properties of NMDA receptors at individual synapses."}, "[2]": {"tested_on": "cultured hippocampal neurons", "assay": "field EPSC (fEPSC) recording before and after TBS", "type": "cell-based, rat", "protocol": "as §1\nTo confirm that such a prominent TBS-induced increase in Pr does contribute to the enhancement of total synaptic strength, the magnitude of potentiation was tested electrophysiologically by sampling field EPSCs (fEPSCs) before and after TBS. The whole cell recording was obtained under perforated patch configuration to avoid wash-out of the intracellular components critical for synaptic plasticity. The membrane potential was clamped at −70 mV and EPSCs were evoked by field stimulation at a sampling frequency of 0.03 Hz. [Mg^2+]o during sampling was 4 mM to reduce background neural activity. The intensity of field stimulation was adjusted to produce a half maximal fEPSC amplitude. After 30 minutes of sampling were employed to determine the baseline level of synaptic strength, the bath solution was changed to 1.2 mM [Mg^2+]o and the recording configuration to current-clamp mode to allow for membrane voltage fluctuations. TBS was delivered at the same amplitude and temporal profiles as for the FM experiments."}, "[3]": {"tested_on": "presynaptic terminals of cultured hippocampal neurons", "assay": "TBS-induced presynaptic plasticity measured by FM 1-43 dye uptake in hippocampal cultures", "type": "cell-based, rat"}, "[4]": {"tested_on": "NMDAR", "assay": "voltage-dependence of NMDAR Mg^2+ block, NMDA currents evoked by glutamate iontophoresis", "type": "cell-based, rat", "excerpt": "Analysis of voltage-dependence of NMDAR Mg^2+ block. For studying the voltage-dependence of NMDAR Mg^2+ block, NMDA currents were evoked by local application of glutamate using the high-speed iontophoresis technique (Murnick et al., 2002). The current traces for each cell were normalized to their value at +40 mV membrane potential. The voltage dependency of NMDA currents was modeled using the Woodhull function (Woodhull, 1973). The NMDA channel conductance in the presence and absence of Mg^2+ was related according to the relationship: [formula] • where KMg is the voltage-independent affinity of Mg^2+ for the channel (0 mV membrane potential), δ is the electrical distance of the Mg^2+ binding site in the membrane field, E is membrane potential, and z is the valence of the blocking ion. RT/F was 25.4 mV (21° C.).\nAlthough the biophysics of Mg^2+ block have been studied extensively (Mayer et al., 1984; Nowak et al., 1984; Jahr and Stevens, 1990), we wished to determine precisely the behavior of the Mg^2+ block at near-physiologic concentrations. […] We evoked NMDA currents by iontophoretic application of glutamate to a putative single bouton identified by FM 1-43 labeling and recorded under whole cell patch clamp in the presence of the AMPAR blocker, NBQX (10 μM). […] (Renger et al., 2001)."}, "[5]": {"tested_on": "NR1", "assay": "quantitative Western blotting of hippocampal homogenate", "settings": "rat, in vivo", "protocol": "(§2) Quantitative Western blotting. Samples of hippocampal homogenate (10 ug/sample) were resolved on polyacrylamide gels, transferred to PVDF, and probed with anti-NR1 (Chemicon), NR2A (Upstate) or NR2B (Santa Cruz Biotech), GluR1 (Chemicon), Synapsin1 (American Qualex), or PSD-95 (Upstate) antibody followed by the appropriate secondary antibody coupled to horseradish peroxidase (1:10,000, Santa Cruz Biotech) in Tris-buffered saline (pH 7.3) containing 5% dry milk and 0.1% Tween (BioRad). Visualization of immunoreactive bands was achieved by enhanced chemiluminescence (Perkin Elmer Biosciences) and captured on autoradiography film (Kodak Scientific). Standard curves, in which the amount of protein was varied systematically, were constructed to establish that we operated within the linear range of the chemiluminescence detection method. In addition, each immunoblot was exposed to autoradiography film multiple times (average 7; minimum 5) for varying duration to make sure we operated in the linear range of the film for each experiment. Digital images, produced by scanning films on a Epson 3200 Scanner (Epson) with Epson Scan Software (Epson), were quantified using GelPro Analyzer 3.1 software. The integrated optical density (IOD) of each immunoreactive band from hippocampal samples relative to baseline measured immediately above and below the band in the same lane, and normalized by the actin or neurofilament band also in the same lane. Group data (eight animals per group) are represented as the mean+/−SEM of the IOD of samples."}, "[6]": {"tested_on": "NR2A", "assay": "quantitative Western blotting of hippocampal homogenate", "settings": "rat, in vivo", "protocol": "as §2"}, "[7]": {"tested_on": "synapsin1", "assay": "quantitative Western blotting of hippocampal homogenate", "settings": "rat, in vivo", "protocol": "as §2"}}, "data": [{"compound": "[Mg+2]", "note": "[Mg^++]", "values": [{"measurement": "N/A ratio (GNMDA/GAMPA)", "setting": "[1]", "value": "increased significantly"}, {"measurement": "change in EPSCNMDA decay", "setting": "[1]", "value": 2, "unit": "fold"}, {"measurement": "ifenprodil-sensitivity of EPSCNMDA in treated versus control cultures", "setting": "[1]", "value": "much higher than in the controls"}, {"measurement": "increase of quantal charge transfer through NMDARs (QNMDA)", "setting": "[1]", "value": 2.4, "unit": "fold"}, {"measurement": "TBS-induced increase in fEPSC amplitude", "setting": "[2]", "value": 2.7, "unit": "fold"}, {"measurement": "duration of fEPSC increase", "setting": "[2]", "value": "at least 1.5 hours"}, {"measurement": "fEPSC2/fEPSC1", "setting": "[2]", "value": "2.7±0.6"}, {"measurement": "increase of synaptic strength after TBS induction, average", "setting": "[2]", "value": 2.7, "unit": "fold"}, {"measurement": "time to maximum of fEPSC increase after TBS", "setting": "[2]", "value": "~10", "unit": "min"}, {"measurement": "F2/F1", "setting": "[3]", "value": "2.3±0.1"}, {"measurement": "N2/N1", "setting": "[3]", "value": "2.1±0.1"}, {"measurement": "Pr increase after TBS", "setting": "[3]", "value": 2.3, "unit": "fold"}, {"measurement": "enhancement of synaptic plasticity", "setting": "[3]", "value": "~2", "unit": "fold"}, {"measurement": "increase in number of detectable FM puncta after TBS", "setting": "[3]", "value": 2.1, "unit": "fold"}, {"measurement": "increase in total presynaptic strength after TBS", "setting": "[3]", "value": 5.5, "unit": "fold"}, {"measurement": "increase in total presynaptic strength after induction", "setting": "[3]", "value": 3.9, "unit": "fold"}, {"measurement": "increase of plasticity of presynaptic terminals (S2/S1)", "setting": "[3]", "value": 2.4, "unit": "fold"}, {"measurement": "increase of synaptic strength at optimum concentration", "setting": "[3]", "value": "up to approximately five-fold"}, {"measurement": "optimal concentration for plasticity (maximal potentiability)", "setting": "[3]", "value": 1.2, "unit": "mM"}, {"measurement": "plasticity of presynaptic terminals after partial block of Ca flux", "setting": "[3]", "value": "significant increases of plasticity"}, {"measurement": "plasticity under long term treatments", "setting": "[3]", "value": "retain high plasticity persistently"}, {"measurement": "time for which potentiation was stable", "setting": "[3]", "value": "at least 1.5 hours"}, {"measurement": "effect on NMDA current", "setting": "[4]", "value": "had no effect"}, {"measurement": "reduction (attenuation) of NMDA current", "setting": "[4]", "value": "~60", "unit": "%"}, {"measurement": "reduction of EPSCNMDA amplitude", "setting": "[4]", "value": 50, "unit": "%"}, {"measurement": "size of outward EPSCNMDA", "setting": "[4]", "value": "remained relatively unchanged"}, {"measurement": "change of NR1", "setting": "[5]", "value": "no significant changes"}, {"measurement": "change of NR2A", "setting": "[6]", "value": "no significant changes"}, {"measurement": "change of synapsin1", "setting": "[7]", "value": "no significant changes"}]}]}
